How the values were obtained:
Test in all cases: MIC, liquid medium test tube series dilution test
Psdm. aerug. Walter = format: cell-based, Pseudomonas aerug.; settings: 24 hours, 37°C
Method in brief: (§1)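 Read-out: visual turbidity after 24 h at 37°C. The MIC, in units/ml, corresponds to the non-turbid tube in a liquid-medium test tube dilution series prepared in complete nutrient medium.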

Psdm. aerug. Bonn = format: cell-based, Pseudomonas aerug.; settings: 24 hours, 37°C
Method in brief: as §1

Proteus vulg. 1017 = format: cell-based, Proteus vulgaris; settings: Proteus vulg. 1017, 24 hours, 37°C
Method in brief: as §1

Proteus vulg. 3400 = format: cell-based, Proteus vulgaris; settings: Proteus vulg. 3400, 24 hours, 37°C
Method in brief: as §1

Staph. aureus 1777 E = format: cell-based, Staphylococcus aureus; settings: 24 hours, 37°C
Method in brief: as §1

Staph. aureus 133 = format: cell-based, Staphylococcus aureus; settings: Staph. aureus 133, 24 hours, 37°C
Method in brief: as §1

E. coli 14 = format: cell-based; settings: E. coli 14, 24 hours, 37°C
Method in brief: as §1

Klebsiella K 10 = format: cell-based; settings: Klebsiella K 10, 24 hours, 37°C
Method in brief: as §1

E. coli C 165 = format: cell-based; settings: E. coli C 165, 24 hours, 37°C
Method in brief: as §1

E. coli A 261 = format: cell-based; settings: E. coli A 261, 24 hours, 37°C
Method in brief: as §1

[1] = test system: Streptoc. faec. ATCC 9790; format: cell-based; settings: Strep. faec. (Enterococcus) ATCC 9790, 24 hours, 37°C
Method in brief: as §1

E. coli 183/58 = format: cell-based; settings: E. coli 183/58, 24 hours, 37°C
Method in brief: as §1

Klebsiella 63 = format: cell-based; settings: Klebsiella 63, 24 hours, 37°C
Method in brief: as §1

Row | SMILES | MIC (Psdm. aerug. Walter) | MIC (Psdm. aerug. Bonn) | MIC (Proteus vulg. 1017) | MIC (Proteus vulg. 3400) | MIC (Staph. aureus 1777 E) | MIC (Staph. aureus 133) | MIC (E. coli 14) | MIC (Klebsiella K 10) | MIC (E. coli C 165) | MIC (E. coli A 261) | MIC [1] | MIC (E. coli 183/58) | MIC (Klebsiella 63) | also measured
1 | CN(C(=O)N[C@@H](C(=O)N[C@@H]1C(=O)N2[C@@H]1SC(C)(C)[C@@H]2C(=O)O)c1ccccc1)C(=O)c1cc(Cl)ccc1Cl [Example 111, Sodium D(-)-α-(3-[2,5-dichlorobenzoyl]-3-methyl-ureido)-benzylpenicillin] | 4-20 units/ml | 4-20 units/ml | 0.8-4 units/ml | 0.8-4 units/ml | 4-20 units/ml | 0.8 units/ml | < 0.8 units/ml | 4-20 units/ml | 0.8-4 units/ml | 20-100 units/ml | 4-20 units/ml | < 0.8 units/ml | 4-20 units/ml | 
2 | CCCCOC(=O)N(C)C(=O)N[C@@H](C(=O)N[C@@H]1C(=O)N2[C@@H]1SC(C)(C)[C@@H]2C(=O)O)c1ccccc1 [Example 12, Sodium D(-)-α-(3-n-butoxycarbonyl-3-methyl-ureido)-benzylpenicillin] | 200 units/ml | 400 units/ml | 100 units/ml | 100 units/ml | 400 units/ml | 1.6 units/ml | 6.3 units/ml | 50 units/ml | 50 units/ml | > 400 units/ml | 200 units/ml | 12.5 units/ml | 100 units/ml | 
3 | CN(C(=O)N[C@@H](C(=O)N[C@@H]1C(=O)N2[C@@H]1SC(C)(C)[C@@H]2C(=O)O)c1ccccc1)C(=O)N1CCCC1 [Example 124, Sodium D(-)-α-(3-[1-pyrrolidyl]-carbonyl-3-methyl-ureido)-benzylpenicillin] | 100 units/ml | 50 units/ml | 50 units/ml | 50 units/ml | 25 units/ml | < 0.78 units/ml | 3.12 units/ml | 50 units/ml | 12.5 units/ml | > 400 units/ml | 200 units/ml | 25 units/ml | 50 units/ml | 
4 | CC1(C)S[C@@H]2[C@H](NC(=O)[C@H](NC(=O)N3CCNC3=O)c3ccccc3)C(=O)N2[C@H]1C(=O)O [Example 53, D(-)-α-[(Imidazolidin-2-on-1-yl)-carbonylamino]-benzylpenicillin] | 12,5 units/ml | 6,25 units/ml | 6,25 units/ml | 12,5 units/ml | 200 units/ml | < 0,78 units/ml | 3,12 units/ml | 50 units/ml | 6,25 units/ml | 400 units/ml | 12,5 units/ml | 12,5 units/ml | 25 units/ml | 
5 | CN(C(=O)N[C@@H](C(=O)N[C@@H]1C(=O)N2[C@@H]1SC(C)(C)[C@@H]2C(=O)O)c1ccccc1)C(=O)c1ccc(Cl)cc1 [Example 112, Sodium D(-)-α-(3-p-chlorebenzoyl-3-methyl-ureido)-benzylpenicillin] | 4-20 units/ml | 4- 20 units/ml | 0.8-4 units/ml | 0.8-4 units/ml | 20-100 units/ml | 0.8 units/ml | < 0.8 units/ml | 4-20 units/ml | 0.8-4 units/ml | 20-100 units/ml | 4-20 units/ml | < 0.8 units/ml | 4-20 units/ml | 
6 | CC(=O)N(C)C(=O)NC(C(=O)N[C@@H]1C(=O)N2[C@@H]1SC(C)(C)[C@@H]2C(=O)O)c1cccs1 (stereo partly drawn) [Example 122, Sodium D,L-α-(3-acetyl-3-methyl-ureido)-α-thienyl(2)-methylpenicillin] | 400 units/ml | 200 units/ml | 100 units/ml | 400 units/ml | 400 units/ml | 1.6 units/ml | 12.5 units/ml | 50 units/ml | 50 units/ml | > 400 units/ml | 100 units/ml | 200 units/ml | 100 units/ml | 
7 | CC1(C)S[C@@H]2[C@H](NC(=O)[C@H](NC(=O)N3CCNC3=O)c3ccccc3)C(=O)N2[C@H]1C(=O)O [Example 144 A, D(-)-α-(Imidazolidin-2-on-1-yl-carbonylamino)-benzyl-penicillin] |  |  |  |  |  |  |  | 50 units/ml |  |  |  |  |  | MIC (Psdm. aerug. Walter; listed as 144): 12.5 units/ml; MIC (Psdm. aerug. Bonn; listed as 144): 6.25 units/ml; MIC (Proteus vulg. 1017; listed as 144): 12 units/ml; MIC (Proteus vulg. 3400; listed as 144): 25 units/ml; MIC (Staph. aureus 1777 E; listed as 144): 200 units/ml; MIC (Staph. aureus 133; listed as 144): < 0.8 units/ml; MIC (E. coli 14; listed as 144): 1.56 units/ml; MIC (E. coli C 165; listed as 144): 6.25 units/ml; MIC (E. coli A 261; listed as 144): 400 units/ml; MIC ([1]; listed as 144): 25 units/ml; MIC (E. coli 183/58; listed as 144): 50 units/ml; MIC (Klebsiella 63; listed as 144): 50 units/ml
8 | COC(=O)N(C)C(=O)N[C@@H](C(=O)N[C@@H]1C(=O)N2[C@@H]1SC(C)(C)[C@@H]2C(=O)O)c1c(Cl)cccc1Cl [Example 7, Sodium D(-)-α-(3-methoxycarbonyl-3-methyl-ureido)-2,6-dichlorobenzylpenicillin] | > 500 units/ml | 100-500 units/ml | ~ 500 units/ml | 100-500 units/ml | 100-500 units/ml | 0.8-4 units/ml | 100-500 units/ml | > 500 units/ml | 100-500 units/ml | > 500 units/ml | 100-500 units/ml | 100-500 units/ml | > 500 units/ml | 
9 | CN(C(=O)N[C@@H](C(=O)N[C@@H]1C(=O)N2[C@@H]1SC(C)(C)[C@@H]2C(=O)O)c1ccccc1)C(=O)c1cccc(Cl)c1 [Example 117, Sodium D(-)-α-(3-m-chlorobenzoyl-3-methyl-ureido)-benzylpenicillin] | 12.5 units/ml | 12.5 units/ml | 3.12 units/ml | 3.12 units/ml | 12.5 units/ml | 0.8 units/ml | < 0.78 units/ml | 6.25 units/ml | 1.56 units/ml | 50 units/ml | 50 units/ml | 1.56 units/ml | 12.5 units/ml | 
10 | CN(C(=O)NC(C(=O)N[C@@H]1C(=O)N2[C@@H]1SC(C)(C)[C@@H]2C(=O)O)c1cccs1)C(=O)c1ccccc1Cl (stereo partly drawn) [Example 135, Sodium α-(3-o-chlorobenzoyl-3-methyl-ureido)-α-thienyl(2)-methylpenicillin] | 100 units/ml | 400 units/ml | 25 units/ml | 100 units/ml | 100 units/ml | < 0.8 units/ml | 12.5 units/ml | 100 units/ml | 50 units/ml | 400 units/ml | 200 units/ml | 25 units/ml | 400 units/ml | 
11 | CN(C(=O)N[C@@H](C(=O)N[C@@H]1C(=O)N2[C@@H]1SC(C)(C)[C@@H]2C(=O)O)c1ccccc1)C(=O)c1ccc(Cl)cc1[N+](=O)[O-] [Example 127, Sodium D(-)-α-(3-[2-nitro-4-chlorobenzoyl]-3-methyl-ureido)-benzylpenicillin] | 25 units/ml | 12.5 units/ml | 3.12 units/ml | 6.25 units/ml | 12.5 units/ml | < 0.78 units/ml | 0.78 units/ml | 12.5 units/ml | 3.12 units/ml | 50 units/ml | 25 units/ml | 1.56 units/ml | 12.5 units/ml | 
12 | COC(=O)N(C)C(=O)N[C@H](C(=O)N[C@@H]1C(=O)N2[C@@H]1SC(C)(C)[C@@H]2C(=O)O)c1c(Cl)cccc1Cl [Example 8, Sodium L(+)-α-(3-methoxycarbonyl-3-methyl-ureido)-2,6-dichlorobenzylpenicillin] | > 500 units/ml | > 500 units/ml | > 500 units/ml | > 500 units/ml | 100-500 units/ml | 4-20 units/ml | > 500 units/ml | > 500 units/ml | > 500 units/ml | > 500 units/ml | > 500 units/ml | > 500 units/ml | > 500 units/ml | 
